Experimental findings from US20240390377A1, “COMPOSITION FOR THE PREVENTION OR TREATMENT OF NEURODEGENERATIVE OR MOTOR NEURON DISEASES COMPRISING HALOFUGINONE AS AN ACTIVE INGREDIENT” (CURAMYS CO., LTD., priority 2022, published 2024) are described below.

For this assay, the system named is G93A mutant SOD1 transgenic mice. Nature of the assay: ALS animal model disease progression, survival and motor function (rotarod) analysis. The assay is classed as in vivo, mouse. As to the method: Specifically, all animal experiments were conducted according to the guidelines of the Animal Care Committee of Seoul National University Animal Hospital (IACUC, approval number SNU-200220-1-2). Transgenic mice expressing the human G93A mutant SOD1 gene (B6SJL-Tg(SOD1-G93A) 1 Gur/J) as an ALS animal model were purchased from Jackson Laboratory (Bar Harbor, ME, USA). Male transgenic ALS mice expressing mtSOD1(G93A) H1 strain (Jackson Laboratories, Bar Harbor, ME, USA) were crossed with female mice (B6/SJLF1). The mice were housed under standard conditions with a constant temperature of 22±1° C., relative humidity of 40%, and a 12-hour light-dark cycle, with ad libitum access to food and water. Genotypes were confirmed by polymerase chain reaction (PCR) using primers shown in [Table 1] below, and the number of transgene copies was confirmed. Next, G93A mutant SOD1 transgenic mice were divided into three stages: 60 days old (asymptomatic), 90 days old (early symptom), and 120 days old (late symptom) depending on the time point. A total of 96 mice were used in the experiment. As a control group, non-transgenic mice were used.
As a control group, non-transgenic mice were injected intraperitoneally (i.p.) with vehicle (DMSO) in the same manner for the same period of time.
Specifically, the clinical condition and body weight of the mice in Example 6 were assessed three times a week starting from day 83 post-birth. Disease onset was defined as tremor of the limbs when the mouse's tail was suspended in the air, reported to be clinically associated with upper motor neuron system [S. Nagano, Y. Fujii, T. Yamamoto, M. Taniyama, K. Fukada, T. Yanagihara, et al. The efficacy of trientine or ascorbate alone compared to that of the combined treatment with these two agents in familial amyotrophic lateral sclerosis model mice Exp Neurol, 179 (2003), pp. 176-180]. The endpoint age was determined as the inability of the animal to right itself within 30 seconds after being placed on a flat surface on its side. At this point, the mouse was considered deceased [C. Zheng, I. Nennesmo, B. Fadeel, J. I. Henter Vascular endothelial growth factor prolongs survival in a transgenic mouse model of ALS Ann Neurol, 56 (2004), pp. 564-567]. The motor function of mice was assessed using a rotarod apparatus (JD-A-07M, JEUNG DO BIO & PLANT CO., LTD). Mice were trained for one week prior to recording. The mice were placed on a rotarod that started at a speed of 4 rpm and accelerated up to 40 rpm over 300 seconds, increasing by 1 rpm approximately every 8.3 seconds. The rotarod test was measured on average three times per measurement, three times per week from 83 days of age, until it was not possible to stay in rotarod for more than 10 seconds three consecutive times.
All data were expressed as the mean and the standard error of the mean (SEM) based on at least three independent experiments and as the ratio of control values. The significance of differences between groups was analyzed by Student's t-test or one-way ANOVA followed by Tukey's post host comparison. A p-value of <0.05 was considered statistically significant. The cumulative probability of symptom onset, rotarod failure, and disease endpoint was analyzed using a Kaplan Meier curve. All analyses were performed using GraphPad Prism. […]
A general note: In the rotarod test animals must keep their balance on a rotating rod.

Where [1] appears, read: 250 μg/kg i.p. three times a week from 10 weeks of age, Hal TG vs DMSO TG group (FIG. 6a).

Regarding `O=C(C[C@H]1NCCC[C@@H]1O)Cn1cnc2cc(Br)c(Cl)cc2c1=O` (racemic) [halofuginone], under setting [1], the body weight entry was “no significant difference” and the “time in the rotarod” value is on record as “significantly longer”. In addition, the onset of symptoms (250 μg/kg i.p. three times a week, mean±SD, DMSO TG group 94.2±5.7) is on record as 113±3.6. Moreover, under “250 μg/kg i.p. three times a week, mean±SD, DMSO TG group 116.5±3.1, p<0.001”, the “age of reaching rotarod failure” value turned out to be 124.3±3.5. Besides, the endpoint age (250 μg/kg i.p. three times a week, mean±SD, DMSO TG group 129.3±7.6) is listed as 141.8±9.8.
